According to ChEMBL document CHEMBL1157563 (J Med Chem, 2010):
Active and inactive are the calls of the source. The calls are words filed in the database; no cut-off is given here.

Key:
Histone deacetylase = assay type: cell-based, Homo sapiens; conditions: hela
Description: Inhibition of HDAC in human HeLa cell nuclear extract

[1] = target: Epidermal growth factor receptor (Homo sapiens, UniProt P00533)
[2] = target: Receptor tyrosine-protein kinase erbB-2 (Homo sapiens, UniProt P04626)
HepG2 [3] = test: Antiproliferative activity against human HepG2 cells after hrs by ATP content assay; assay type: functional, cell-based
cells [4] = assay type: functional, cell-based, Hep 3B2; conditions: Homo sapiens, Hep3B
Description: Antiproliferative activity against human Hep3B2 cells after hrs by ATP content assay

SK-HEP1 = test: cells; assay type: functional, cell-based; conditions: Homo sapiens
Description: Antiproliferative activity against human SKHEP1 cells after hrs by ATP content assay

MCF7 = test: cells; assay type: functional, cell-based; conditions: Homo sapiens
Description: Antiproliferative activity against human MCF7 cells after hrs by ATP content assay

MDA-MB-231 = test: Antiproliferative activity against human MDA-MB-231 cells after hrs by ATP content assay; assay type: functional, cell-based
SK-BR-3 = test: cells; assay type: functional, cell-based; conditions: Homo sapiens
Description: Antiproliferative activity against human SK-BR-3 cells after hrs by ATP content assay

MDA-MB-468 [5] = test: Antitumor activity against human MDA-MB-468 cells xenografted in nude CD1 mouse at 75 mg/kg, po bid relative to control
cells [6] = assay type: functional, cell-based; conditions: Homo sapiens, HCC827
Description: Antiproliferative activity against human HCC827 cells after hrs by ATP content assay

NCI-H358 [7] = test: cells; assay type: functional, cell-based; conditions: Homo sapiens
Description: Antiproliferative activity against human NCI-H358 cells after hrs by ATP content assay

NCI-H460 = test: cells; assay type: functional, cell-based; conditions: Homo sapiens
Description: Antiproliferative activity against human H460 cells after hrs by ATP content assay

CAPAN-1 = test: cells; assay type: functional, cell-based; conditions: Homo sapiens
Description: Antiproliferative activity against human Capan1 cells after hrs by ATP content assay

BXPC-3 = test: cells; assay type: functional, cell-based; conditions: Homo sapiens
Description: Antiproliferative activity against human BxPC3 cells after hrs by ATP content assay

[8] = target: NAD-dependent protein deacetylase sirtuin-1 (Homo sapiens) (UniProt Q96EB6); test: Inhibition of human SIRT1 expressed in Escherichia coli
[9] = target: NAD-dependent protein deacetylase sirtuin-2 (Homo sapiens) (UniProt Q8IXJ6); test: Inhibition of human SIRT2 expressed in Escherichia coli
NAD-dependent protein deacetylase sirtuin-2 (Homo sapiens), sequence (Q8IXJ6 whole entry): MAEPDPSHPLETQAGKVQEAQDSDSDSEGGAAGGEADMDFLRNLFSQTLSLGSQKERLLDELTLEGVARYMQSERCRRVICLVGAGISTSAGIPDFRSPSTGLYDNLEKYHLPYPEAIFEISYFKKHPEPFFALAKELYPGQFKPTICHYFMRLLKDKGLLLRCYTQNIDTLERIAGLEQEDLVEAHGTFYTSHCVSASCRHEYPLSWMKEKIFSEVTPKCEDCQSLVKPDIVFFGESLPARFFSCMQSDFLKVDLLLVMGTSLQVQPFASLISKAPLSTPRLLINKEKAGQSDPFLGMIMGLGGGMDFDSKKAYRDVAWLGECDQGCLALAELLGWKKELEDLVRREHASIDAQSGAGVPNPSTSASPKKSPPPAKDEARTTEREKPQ

[10] = target: NAD-dependent protein deacetylase sirtuin-3, mitochondrial (Homo sapiens) (UniProt Q9NTG7); test: Inhibition of human SIRT3 expressed in Escherichia coli
NAD-dependent protein deacetylase sirtuin-3, mitochondrial (Homo sapiens), sequence (Q9NTG7 whole entry): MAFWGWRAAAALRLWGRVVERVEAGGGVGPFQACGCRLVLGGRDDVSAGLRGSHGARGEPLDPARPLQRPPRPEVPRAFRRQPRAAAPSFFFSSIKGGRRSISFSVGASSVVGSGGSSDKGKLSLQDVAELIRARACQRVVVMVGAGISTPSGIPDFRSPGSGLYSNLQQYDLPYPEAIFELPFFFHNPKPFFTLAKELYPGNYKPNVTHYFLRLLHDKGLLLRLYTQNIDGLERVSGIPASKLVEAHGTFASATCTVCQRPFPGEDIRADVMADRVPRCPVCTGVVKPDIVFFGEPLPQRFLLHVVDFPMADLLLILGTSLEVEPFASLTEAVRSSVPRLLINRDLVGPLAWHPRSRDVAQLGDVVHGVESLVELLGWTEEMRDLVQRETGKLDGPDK

[11] = target: Vascular endothelial growth factor receptor 2 (Homo sapiens, UniProt P35968); test: Inhibition of KDR
[12] = target: Proto-oncogene tyrosine-protein kinase Src (Homo sapiens, UniProt P12931); test: Inhibition of Src
[13] = target: Tyrosine-protein kinase Lyn (Homo sapiens, UniProt P07948); test: Inhibition of Lyn
Tyrosine-protein kinase Lyn, sequence (P07948 whole entry): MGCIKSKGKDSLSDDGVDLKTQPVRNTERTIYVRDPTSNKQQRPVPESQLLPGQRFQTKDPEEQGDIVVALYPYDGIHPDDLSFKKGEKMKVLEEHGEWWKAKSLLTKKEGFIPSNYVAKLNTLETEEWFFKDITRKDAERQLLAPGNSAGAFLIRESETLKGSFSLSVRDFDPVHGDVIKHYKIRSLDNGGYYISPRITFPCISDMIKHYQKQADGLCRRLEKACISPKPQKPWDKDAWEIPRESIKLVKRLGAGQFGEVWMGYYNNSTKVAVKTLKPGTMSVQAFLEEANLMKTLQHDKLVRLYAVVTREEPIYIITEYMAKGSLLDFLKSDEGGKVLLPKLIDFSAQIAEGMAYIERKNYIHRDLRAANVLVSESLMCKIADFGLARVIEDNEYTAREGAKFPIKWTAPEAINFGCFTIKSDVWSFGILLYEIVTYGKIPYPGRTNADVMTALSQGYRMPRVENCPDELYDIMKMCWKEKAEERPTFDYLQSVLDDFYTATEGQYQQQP

[14] = target: Tyrosine-protein kinase Lck (Homo sapiens, UniProt P06239); test: Inhibition of Lck
[15] = target: Fibroblast growth factor receptor 2 (Homo sapiens, UniProt P21802); test: Inhibition of FGFR2
[16] = target: Receptor-type tyrosine-protein kinase FLT3 (Homo sapiens, UniProt P36888); test: Inhibition of Flt3
Receptor-type tyrosine-protein kinase FLT3, sequence (P36888 whole entry): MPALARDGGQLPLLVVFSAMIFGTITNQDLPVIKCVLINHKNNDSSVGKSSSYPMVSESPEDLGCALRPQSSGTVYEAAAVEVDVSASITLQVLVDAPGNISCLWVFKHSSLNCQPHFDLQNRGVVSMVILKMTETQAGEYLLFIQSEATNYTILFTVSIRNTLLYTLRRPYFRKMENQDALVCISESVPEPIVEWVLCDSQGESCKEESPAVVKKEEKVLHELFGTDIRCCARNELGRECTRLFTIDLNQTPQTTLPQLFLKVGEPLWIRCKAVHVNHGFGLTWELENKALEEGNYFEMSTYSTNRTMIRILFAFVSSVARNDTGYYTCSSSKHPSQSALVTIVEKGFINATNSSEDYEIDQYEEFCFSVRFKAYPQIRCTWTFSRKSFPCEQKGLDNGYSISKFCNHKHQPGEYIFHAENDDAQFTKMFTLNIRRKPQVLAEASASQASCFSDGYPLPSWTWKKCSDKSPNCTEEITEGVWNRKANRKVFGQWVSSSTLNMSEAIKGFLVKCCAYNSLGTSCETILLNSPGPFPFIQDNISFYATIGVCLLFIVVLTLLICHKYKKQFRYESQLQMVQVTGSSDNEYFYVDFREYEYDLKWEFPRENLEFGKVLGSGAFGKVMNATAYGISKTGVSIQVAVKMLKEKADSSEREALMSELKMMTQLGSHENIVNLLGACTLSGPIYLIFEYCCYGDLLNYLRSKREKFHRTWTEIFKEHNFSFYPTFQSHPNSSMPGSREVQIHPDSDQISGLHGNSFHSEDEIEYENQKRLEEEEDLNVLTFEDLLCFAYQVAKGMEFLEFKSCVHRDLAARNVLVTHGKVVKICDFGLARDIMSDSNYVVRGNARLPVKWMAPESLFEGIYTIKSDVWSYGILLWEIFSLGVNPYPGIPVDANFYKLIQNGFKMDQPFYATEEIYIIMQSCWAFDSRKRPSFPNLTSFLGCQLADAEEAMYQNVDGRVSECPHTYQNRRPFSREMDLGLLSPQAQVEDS

NCI-H358 [17] = test: Antitumor activity against human NCI-H358 cells xenografted in nude CD1 mouse at 15 mg/kg, iv dosed daily on 7-6-5 (on-off-on) schedule relative to control; assay type: functional
NCI-H358 [18] = test: Antitumor activity against human NCI-H358 cells xenografted in nude CD1 mouse at 30 mg/kg, iv dosed daily on 7-6-5 (on-off-on) schedule relative to control; assay type: functional
NCI-H358 [19] = test: Antitumor activity against human NCI-H358 cells xenografted in nude CD1 mouse at 60 mg/kg, iv dosed daily on 7-6-5 (on-off-on) schedule relative to control; assay type: functional
A549 = test: Antitumor activity against human A549 cells xenografted in nude CD1 mouse at 120 mg/kg, iv daily relative to control; assay type: functional
MDA-MB-468 [20] = test: Antitumor activity against human MDA-MB-468 cells xenografted in nude CD1 mouse assessed as tumor regression at 120 mg/kg, iv daily relative to control; assay type: functional
HCT-116 = test: Antitumor activity against human HCT116 cells xenografted in nude CD1 mouse at 60 mg/kg, iv dosed daily on 5-2-5 (on-off-on) schedule relative to control; assay type: functional
CAL-27 = test: Antitumor activity against human CAL27 cells xenografted in nude CD1 mouse assessed as tumor regression at 120 mg/kg, iv daily relative to control; assay type: functional
HepG2 [21] = test: Antitumor activity against human HepG2 cells xenografted in nude CD1 mouse assessed as tumor regression at 120 mg/kg, iv daily relative to control; assay type: functional
HPAC = test: Antitumor activity against human HPAC cells xenografted in nude CD1 mouse at 120 mg/kg, iv daily relative to control; assay type: functional
HepG2 [22] = test: Antitumor activity against human HepG2 cells xenografted in nude CD1 mouse at 72 mg/kg, iv daily relative to control; assay type: functional

Receptor tyrosine-protein kinase erbB-2, sequence (P04626 whole entry): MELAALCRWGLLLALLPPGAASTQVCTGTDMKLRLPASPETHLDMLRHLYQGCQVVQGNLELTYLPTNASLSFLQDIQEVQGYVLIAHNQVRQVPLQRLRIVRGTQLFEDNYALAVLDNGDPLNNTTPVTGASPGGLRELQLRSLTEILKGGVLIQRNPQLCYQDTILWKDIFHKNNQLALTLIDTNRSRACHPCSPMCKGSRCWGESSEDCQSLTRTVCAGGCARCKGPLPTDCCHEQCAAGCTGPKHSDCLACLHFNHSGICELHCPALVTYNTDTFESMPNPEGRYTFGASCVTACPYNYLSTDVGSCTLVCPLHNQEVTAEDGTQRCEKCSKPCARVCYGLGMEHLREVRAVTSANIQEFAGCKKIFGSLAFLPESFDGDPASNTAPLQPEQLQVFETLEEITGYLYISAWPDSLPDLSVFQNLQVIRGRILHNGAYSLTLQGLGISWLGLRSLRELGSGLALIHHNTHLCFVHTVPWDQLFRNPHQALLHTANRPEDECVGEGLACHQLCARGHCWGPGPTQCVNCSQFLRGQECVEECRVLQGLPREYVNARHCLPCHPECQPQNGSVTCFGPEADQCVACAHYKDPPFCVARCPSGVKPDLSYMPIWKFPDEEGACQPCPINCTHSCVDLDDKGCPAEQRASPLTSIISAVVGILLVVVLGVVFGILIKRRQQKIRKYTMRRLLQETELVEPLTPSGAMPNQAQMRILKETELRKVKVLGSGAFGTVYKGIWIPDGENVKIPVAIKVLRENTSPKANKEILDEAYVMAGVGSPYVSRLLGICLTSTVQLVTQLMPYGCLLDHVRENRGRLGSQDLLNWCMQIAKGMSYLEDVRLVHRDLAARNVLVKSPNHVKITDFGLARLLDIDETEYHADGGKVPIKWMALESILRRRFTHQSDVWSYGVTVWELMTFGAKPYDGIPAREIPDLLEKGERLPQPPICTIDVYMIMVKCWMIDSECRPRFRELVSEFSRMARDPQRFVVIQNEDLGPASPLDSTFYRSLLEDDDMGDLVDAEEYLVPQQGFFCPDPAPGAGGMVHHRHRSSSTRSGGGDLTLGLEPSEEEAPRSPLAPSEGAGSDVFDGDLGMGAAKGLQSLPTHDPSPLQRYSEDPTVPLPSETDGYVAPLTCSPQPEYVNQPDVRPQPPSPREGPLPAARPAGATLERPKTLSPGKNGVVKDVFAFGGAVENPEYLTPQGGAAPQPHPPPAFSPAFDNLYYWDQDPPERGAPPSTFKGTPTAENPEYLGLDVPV
Epidermal growth factor receptor, sequence (P00533 whole entry): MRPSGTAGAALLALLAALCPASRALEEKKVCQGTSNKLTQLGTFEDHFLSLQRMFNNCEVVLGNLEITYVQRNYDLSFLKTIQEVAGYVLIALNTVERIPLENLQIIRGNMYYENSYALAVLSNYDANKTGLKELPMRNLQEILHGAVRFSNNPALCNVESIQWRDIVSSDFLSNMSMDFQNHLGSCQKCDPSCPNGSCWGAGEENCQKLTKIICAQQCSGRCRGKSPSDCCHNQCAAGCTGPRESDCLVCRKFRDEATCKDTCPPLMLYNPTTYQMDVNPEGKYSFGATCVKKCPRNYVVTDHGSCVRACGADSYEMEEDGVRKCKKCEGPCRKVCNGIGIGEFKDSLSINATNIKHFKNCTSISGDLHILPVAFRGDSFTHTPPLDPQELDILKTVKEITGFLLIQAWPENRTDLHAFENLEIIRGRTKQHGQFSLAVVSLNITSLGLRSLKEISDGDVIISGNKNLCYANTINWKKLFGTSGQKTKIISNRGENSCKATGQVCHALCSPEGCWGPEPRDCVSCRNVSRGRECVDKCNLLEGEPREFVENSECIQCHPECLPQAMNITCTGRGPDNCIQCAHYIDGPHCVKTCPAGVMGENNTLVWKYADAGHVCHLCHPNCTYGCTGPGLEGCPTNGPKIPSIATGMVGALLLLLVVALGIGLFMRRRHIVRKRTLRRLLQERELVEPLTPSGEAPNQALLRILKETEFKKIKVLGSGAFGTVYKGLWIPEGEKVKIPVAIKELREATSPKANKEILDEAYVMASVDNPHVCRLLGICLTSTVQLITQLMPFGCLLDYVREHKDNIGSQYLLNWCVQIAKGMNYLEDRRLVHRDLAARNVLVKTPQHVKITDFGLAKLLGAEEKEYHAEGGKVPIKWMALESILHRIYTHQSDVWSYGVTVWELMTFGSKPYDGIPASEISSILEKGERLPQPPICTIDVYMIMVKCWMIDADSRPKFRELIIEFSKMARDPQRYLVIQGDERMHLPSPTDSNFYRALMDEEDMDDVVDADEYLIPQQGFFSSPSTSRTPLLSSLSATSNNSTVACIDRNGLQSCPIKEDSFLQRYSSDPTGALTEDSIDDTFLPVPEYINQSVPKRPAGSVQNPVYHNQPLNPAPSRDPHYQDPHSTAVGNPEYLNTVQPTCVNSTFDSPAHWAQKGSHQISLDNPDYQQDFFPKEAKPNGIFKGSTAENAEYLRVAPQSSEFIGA

COCCOc1cc2ncnc(Nc3ccc(F)c(Cl)c3)c2cc1OCCCCCCC(=O)NO
IC50 (Histone deacetylase): 8.4 nM | IC50 [1]: 10.4 nM | IC50 [2]: 24 nM

C#Cc1cc(Nc2ncnc3cc(OC)c(OCCCCCCC(=O)NO)cc23)ccc1F
IC50 (Histone deacetylase): 3.4 nM | IC50 [1]: 28.8 nM | IC50 [2]: 76.5 nM

CS(=O)(=O)CCNCc1ccc(-c2ccc3ncnc(Nc4ccc(OCc5cccc(F)c5)c(Cl)c4)c3c2)o1 [LAPATINIB]
IC50 (HepG2 [3]): 6270 nM | IC50 (cells [4]): 5490 nM | IC50 (SK-HEP1): 5300 nM | IC50 (MCF7): 6.6 µM | IC50 (MDA-MB-231): 5400 nM | IC50 (SK-BR-3): 40 nM | Activity (MDA-MB-468 [5]): 51%

C#Cc1cccc(Nc2ncnc3cc(OC)c(OCCCCCCC(=O)NO)cc23)c1 [CUDC-101]
IC50 (cells [6]): 600 nM | IC50 (NCI-H358 [7]): 400 nM | IC50 (NCI-H460): 700 nM | IC50 (HepG2 [3]): 130 nM | IC50 (cells [4]): 230 nM | IC50 (SK-HEP1): 220 nM | IC50 (CAPAN-1): 800 nM | IC50 (BXPC-3): 270 nM | IC50 (MCF7): 0.55 µM | IC50 (MDA-MB-231): 100 nM | IC50 (SK-BR-3): 40 nM | Activity [8]: inactive | Activity [9]: inactive | Activity [10]: inactive | IC50 [11]: 849 nM | IC50 [12]: 11 µM | IC50 [13]: 840 nM | IC50 [14]: 5.91 µM | IC50 [15]: 3.43 µM | IC50 [16]: 1500 nM | Activity (NCI-H358 [17]): 41.9% | Activity (NCI-H358 [18]): 10.3% | Activity (NCI-H358 [19]): 6.5% | Activity (A549): 35.9% | Activity (MDA-MB-468 [20]): -13.7% | Activity (HCT-116): 35.3% | Activity (CAL-27): -36.5% | Activity (HepG2 [21]): -21.3% | Activity (HPAC): 35.1%

O=C(CCCCCCOc1ccc2ncnc(Nc3ccc(F)c(Cl)c3)c2c1)NO
IC50 (Histone deacetylase): 4.4 nM | IC50 [1]: 84.2 nM | IC50 [2]: 43.5 nM

O=C(CCCCCCC(=O)Nc1ccccc1)NO [VORINOSTAT]
IC50 (HepG2 [3]): 1660 nM | IC50 (MDA-MB-231): 2110 nM | Activity (HepG2 [22]): 26%

COc1cc2ncnc(Nc3ccc(F)c(Cl)c3)c2cc1NC(=O)CCCCCCC(=O)NO
IC50 (Histone deacetylase): 15.3 nM | IC50 [1]: 2.1 nM | IC50 [2]: 20.1 nM

COc1cc2ncnc(Nc3ccc(F)c(Cl)c3)c2cc1OCCCCCC(=O)NO
IC50 (Histone deacetylase): 31 nM | IC50 [1]: 3.4 nM | IC50 [2]: 20 nM

COc1cc2ncnc(NC(C)c3ccc(Cl)cc3)c2cc1OCCCCCCC(=O)NO (single isomer, unassigned)
IC50 (Histone deacetylase): 188 nM | IC50 [1]: 614 nM | IC50 [2]: 557 nM

COc1cc2ncnc(Nc3ccc(F)c(Cl)c3)c2cc1S(=O)(=O)CCCCCCC(=O)NO
IC50 (Histone deacetylase): 121.7 nM | IC50 [1]: 15.4 nM | IC50 [2]: > 2000 nM

C#Cc1cccc(Nc2ncnc3cc(OC)c(OCCCCCC(=O)NO)cc23)c1
IC50 (Histone deacetylase): 13.2 nM | IC50 [1]: 4.6 nM | IC50 [2]: 38.2 nM

COc1cc2ncnc(NCc3ccc(F)cc3)c2cc1OCCCCCCC(=O)NO
IC50 (Histone deacetylase): 5.6 nM | IC50 [2]: 295 nM

COc1cc2ncnc(N[C@H](C)c3ccccc3)c2cc1OCCCCCCC(=O)NO
IC50 (Histone deacetylase): 98.4 nM | IC50 [2]: 27.8 nM
